Molecular target: T1, human PDE2A1 (Homo sapiens, UniProt O00408)
T1 construct: GST; purchased BPS Bioscience (San Diego, Calif.) 60020; host or cells: insect cells
Assay: IMAP FP PDE assay, human PDE2A1
Format: biochemical
Settings: Lab B; read-out: Human PDE2 Ki (nM) Lab B
Protocol: Selectivity for PDE2, as compared to other PDE families, was assessed using the IMAP® technology. Human PDE10A2 enzyme was prepared from cytosolic fractions of transiently transfected HEK cells. All other PDE's were GST Tag human enzyme expressed in insect cells and were obtained from BPS Bioscience (San Diego, Calif.): PDE1A (Cat#60010), human PDE2A1 (Cat#60020), PDE3A (Cat#60030), PDE4A1A (Cat#60040), PDE5A1 (Cat#60050), PDE6C (Cat#60060), PDE7A (Cat#60070), PDE8A1 (Cat#60080), PDE9A2 (Cat#60090), PDE11A4 (Cat#60110).
Assays for PDE 1 through 11 were performed in parallel at room temperature in 384-well microtiter plates with an incubation volume of 20.2 μL. Solutions of test compounds were prepared in DMSO and serially diluted with DMSO to yield 30 μL of each of ten solutions differing by 3-fold in concentration, at 32 serial dilutions per plate. […] A Labcyte POD 810 (Labcyte, Sunnyvale, Calif.) was used to dispense 200 nL from each well of the titration plate to make eleven copies of the assay plate for each titration, one copy for each PDE enzyme. A solution of each enzyme (dilution from aliquots, sufficient to produce 20% substrate conversion) and a separate solution of FAM-labeled cAMP or FAM-labeled cGMP from Molecular Devices (Sunnyvale, Calif., product # R7506 or cGMP#R7508), at a final concentration of 50 nM were made in the assay buffer (10 mM Tris HCl, pH 7.2, 10 mM MgCl2, 0.05% NaN3 0.01% Tween-20, and 1 mM DTT). Note that the substrate for PDE2 is 50 nM FAM cAMP containing 1000 nM of cGMP. The enzyme and the substrate were then added to the assay plates in two consecutive additions of 10 μL and then shaken to mix. The reaction was allowed to proceed at room temperature for 60 minutes. A binding solution was then made from the kit components, comprised of 80% Solution A, 20% Solution B and binding reagent at a volume of 1/600 the total binding solution. The enzymatic reaction was stopped by addition of 60 μL of the binding solution to each well of the assay plate. The plates were sealed and shaken for 10 seconds. The plates were incubated at room temperature for one hour, then the parallel and perpendicular fluorescence was measured using a Tecan Genios Pro plate reader (Tecan, Switzerland). The apparent inhibition constants for the compounds against all 11 PDE's was determined from the parallel and perpendicular fluorescent readings as described for PDE10 FP assay using the following apparent KM values for each enzyme and substrate combination: PDE1A (FAM cGMP) 70 nM, human PDE2A1 (FAM cAMP) 10,000 nM, PDE3A (FAM cAMP) 50 nM, PDE4A1A (FAM cAMP) 1500 nM, PDE5A1 (FAM cGMP) 400 nM, PDE6C (FAM cGMP) 700 nM, PDE7A (FAM cAMP) 150 nM, PDE8A1 (FAM cAMP) 50 nM, PDE9A2 (FAM cGMP) 60 nM, PDE10A2 (FAM cAMP) 150 nM, PDE11A4 (FAM cAMP) 1000 nM. The intrinsic PDE2 inhibitory activity of a compound which may be used in accordance with the present invention may be determined by these assays.

T1 sequence (O00408 1-920 isoform O00408-2): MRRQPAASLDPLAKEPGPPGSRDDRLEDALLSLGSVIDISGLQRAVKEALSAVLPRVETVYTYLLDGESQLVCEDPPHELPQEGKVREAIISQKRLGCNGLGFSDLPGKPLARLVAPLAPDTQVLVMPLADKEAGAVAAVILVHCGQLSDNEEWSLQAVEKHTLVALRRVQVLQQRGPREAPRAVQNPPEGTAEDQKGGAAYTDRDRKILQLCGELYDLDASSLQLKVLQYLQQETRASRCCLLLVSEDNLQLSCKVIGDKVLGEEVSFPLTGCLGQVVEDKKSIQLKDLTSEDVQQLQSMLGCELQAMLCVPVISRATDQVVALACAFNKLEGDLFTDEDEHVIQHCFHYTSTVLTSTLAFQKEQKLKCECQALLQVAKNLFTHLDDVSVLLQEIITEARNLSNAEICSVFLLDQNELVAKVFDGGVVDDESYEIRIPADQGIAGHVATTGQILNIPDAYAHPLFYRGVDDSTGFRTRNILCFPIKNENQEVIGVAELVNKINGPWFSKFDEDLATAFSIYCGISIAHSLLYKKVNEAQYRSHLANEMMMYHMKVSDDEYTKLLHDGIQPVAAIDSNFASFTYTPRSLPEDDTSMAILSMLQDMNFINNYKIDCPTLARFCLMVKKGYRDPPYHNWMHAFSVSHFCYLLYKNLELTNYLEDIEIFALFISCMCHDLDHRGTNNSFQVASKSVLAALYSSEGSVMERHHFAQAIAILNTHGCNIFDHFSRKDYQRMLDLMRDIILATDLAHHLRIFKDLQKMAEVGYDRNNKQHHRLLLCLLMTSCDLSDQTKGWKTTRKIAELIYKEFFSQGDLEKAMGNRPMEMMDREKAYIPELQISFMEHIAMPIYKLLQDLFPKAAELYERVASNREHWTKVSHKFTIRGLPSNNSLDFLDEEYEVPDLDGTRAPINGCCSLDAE

SMILES | Ki
COCC(c1ccc(C(F)(F)F)cc1)n1nc(CO)c2c(=O)[nH]c(C)nc21 (single isomer, unassigned) [Example 101, (S)- or (R)-3-(Hydroxymethyl)-1-(2-methoxy-1-(4-(trifluoromethyl)phenyl)ethyl)-6-methyl-1H-pyrazolo[3,4-d]pyrimidin-4(5H)-one] | 13 nM
CC(c1ccc(C(F)(F)F)cc1)n1nc(C#N)c2c(=O)[nH]c(CC3CC3)nc21 (single isomer, unassigned) [Example 346] | 34 nM
Cc1nc2c(c(CO)nn2C(C)c2cnn(CC(F)(F)F)c2)c(=O)[nH]1 (single isomer, unassigned) [Example 149, (R)- or (S)-3-(Hydroxymethyl)-6-methyl-1-(1-(1-(2,2,2-trifluoroethyl)-1H-pyrazol-4-yl)ethyl)-1H-pyrazolo[3,4-d]pyrimidin-4(5H)-one] | > 2960 nM
Cc1nc2c(c(C3CCCO3)nn2C(C)c2ccc(C(F)(F)F)cc2)c(=O)[nH]1 (single isomer, unassigned) [Example 72, (S, R)- or (S, S)- or (R, S)- or (R, R)-6-Methyl-3-(-tetrahydrofuran-(trifluoromethyl)phenyl)ethyl)-1H-pyrazolo[3,4-d]pyrimidin-4(5H)-one] | 570 nM
Cc1nc2c(c(CC(C)O)nn2C(C)c2ccc(C(F)(F)F)cc2)c(=O)[nH]1 (single isomer, unassigned) [Example 244] | 386 nM
Cc1nc2c(c(CC3COC3)nn2C(C)c2ccc(C(F)(F)F)cc2)c(=O)[nH]1 (centres unmarked) [Example 289, 6-Methyl-3-(oxetan-3-ylmethyl)-1-(1-(4-(trifluoromethyl)phenyl)ethyl)-1H-pyrazolo[3,4-d]pyrimidin-4(5H)-one] | 388 nM
Cc1nc2c(c(CO)nn2C(C)c2ccc(OC(F)F)cc2F)c(=O)[nH]1 (single isomer, unassigned) [Example 119, (S)- or (R)-1-(1-(4-(Difluoromethoxy)-2-fluorophenypethyl)-3-(hydroxymethyl)-6-methyl-1H-pyrazolo[3,4-d]pyrimidin-4(5H)-one] | 2.7 nM
Cc1nc2c(c(CO)nn2C(C)c2ccc(C(F)F)cc2)c(=O)[nH]1 (single isomer, unassigned) [Example 111, (S)- or (R)-1-(1-(4-(Difluoromethyl)phenyl)ethyl)-3-(hydroxymethyl)-6-methyl-1H-pyrazolo[3,4-d]pyrimidin-4(5H)-one] | 3.2 nM
COCc1nc2c(c(CO)nn2C(C)c2ccc(S(F)(F)(F)(F)F)cc2)c(=O)[nH]1 (single isomer, unassigned) [Example 318, (S)- or (R)-3-(Hydroxymethyl)-6-(methoxymethyl)-1-{1-[4-(pentafluorosulfanyl)phenyl]ethyl}-1,5-dihydro-4H-pyrazolo[3,4-d]pyrimidin-4-one] | 3.8 nM
Cc1nc2c(c(C(F)F)nn2C(C)c2ccc(OC(F)(F)F)cc2)c(=O)[nH]1 (single isomer, unassigned) [Example 178, (S)- or (R)-3-(Difluoromethyl)-6-methyl-1-(1-(4-(trifluoromethoxy)phenyl)ethyl)-1H-pyrazolo[3,4-d]pyrimidin-4(5H)-one] | 0.72 nM
CC(=O)c1ccc(C(C)n2nc(CO)c3c(=O)[nH]c(C)nc32)cc1 (single isomer, unassigned) [Example 290] | > 2960 nM
Cc1nc2c(c(C(F)(F)F)nn2C(C)c2ccc(C(F)(F)F)cc2)c(=O)[nH]1 (single isomer, unassigned) [Example 68, (R)- or (S)-6-Methyl-3-(trifluoromethyl)-1-(1-(4-(trifluoromethyl)phenyl)ethyl)-1H-pyrazolo[3,4-d]pyrimidin-4(5H)-one] | 8.6 nM
Cc1nc2c(c(CO)nn2C(C)c2ccc(C(F)(F)F)c(I)c2)c(=O)[nH]1 (single isomer, unassigned) [Example 139, (S)- or (R)-3-(Hydroxymethyl)-1-(1-(3-iodo-4-(trifluoromethyl-)phenyl)ethyl)-6-methyl-1,5-dihydro-4H-pyrazolo[3,4-d]pyrimidin-4-one] | 5.6 nM
COc1cccc(Cc2nc3c(c(-c4nnco4)nn3C(C)c3ccc(C(F)(F)F)cc3)c(=O)[nH]2)c1 (single isomer, unassigned) [Example 344, (R)- or (S)-6-(3-Methoxybenzyl)-3-(1,3,4-oxadiazol-2-yl)-1-(1-(4-(trifluoromethyl)phenyl)ethyl)-1,5-dihydro-4H-pyrazolo[3,4-d] pyrimidin-4-one] | 26 nM
Cc1nc2c(c(CC(C)(C)O)nn2C(C)c2ccc(C(F)(F)F)cc2)c(=O)[nH]1 (centres unmarked) [Example 247, 3-(2-Hydroxy-2-methylpropyl)-6-methyl-1-(1-(4-(trifluoromethyl)phenyl)ethyl)-1H-pyrazolo[3,4-d]pyrimidin-4(5H)-one] | ~567 nM
Cc1nc2c(c(C(F)F)nn2C(C)c2ccc(C(F)(F)F)nc2)c(=O)[nH]1 (single isomer, unassigned) [Example 195] | ~1670 nM
Cc1nc2c(c([C@H](C)CO)nn2[C@@H](C)c2ccc(C(F)(F)F)cc2)c(=O)[nH]1 (single isomer, unassigned) [Example 321] | 33 nM
CNC(=O)c1nn(C(C)c2ccc(C(F)(F)F)cc2)c2nc(C)[nH]c(=O)c12 (single isomer, unassigned) [Example 265] | 375 nM
Cc1nc2c(c(C(=O)NCC(F)(F)F)nn2C(C)c2ccc(C(F)(F)F)cc2)c(=O)[nH]1 (single isomer, unassigned) [Example 269, (S)- or (R)-6-Methyl-4-oxo-N-(2,2,2-trifluoroethyl)-1-(1-(4-(trifluoromethyl)phenyl)ethyl)-4,5-dihydro-1H-pyrazolo[3,4-d]pyrimidine-3-carboxamide] | ~1430 nM
Cc1nc2c(c(CO)nn2C2(c3ccc(C(F)(F)F)cc3)COC2)c(=O)[nH]1 [Example 79, 3-(Hydroxymethyl)-6-methyl-1-(3-(4-(trifluoromethyl)phenyl)oxetan-3-yl)-1H-pyrazolo[3,4-d]pyrimidin-4(5H)-one] | 23 nM
Cc1nc2c(c(CC(O)C(F)(F)F)nn2C(C)c2ccc(C(F)(F)F)cc2)c(=O)[nH]1 (single isomer, unassigned) [Example 240] | 434 nM
CC(c1ccc(C(F)(F)F)cc1)n1nc(CO)c2c(=O)[nH]c(C3CCCO3)nc21 (single isomer, unassigned) [Example 313, (R,S)- or (S,R)- or (R,R)- or (S,S)-3-(Hydroxymethyl)-6-(tetrahydrofuran-2-yl)-1-(1-(4-(trifluoromethyl)-phenyl)ethyl)-1,5-dihydro-4H-pyrazolo[3,4-d]pyrimidin-4-one] | 22 nM
Cc1nc2c(c(C(F)F)nn2C(C)c2ccc(C(F)(F)F)nc2)c(=O)[nH]1 (single isomer, unassigned) [Example 194] | 14 nM
Cc1nc2c(c(C(=O)N(C)C)nn2C(C)c2ccc(C(F)(F)F)cc2)c(=O)[nH]1 (single isomer, unassigned) [Example 266, (R)- or (S)-N,N,6-Trimethyl-4-oxo-1-(1-(4-(trifluoromethyl)phenyl)ethyl)-4,5-dihydro-1H-pyrazolo[3,4-d]pyrimidine-3-carboxamide] | 654 nM
Cc1nc2c(c(CO)nn2C(C)c2ccc(C(F)(F)F)cn2)c(=O)[nH]1 (single isomer, unassigned) [Example 151, (R)- or (S)-3-(Hydroxymethyl)-6-methyl-1-(1-(5-(trifluoromethyl)pyridin-2-yl)ethyl)-1H-pyrazolo[3,4-d]pyrimidin-4(5H)-one] | 25 nM
Cc1nc2c(c(CO)nn2C(C)[C@H]2CC[C@H](C(F)(F)F)CC2)c(=O)[nH]1 (single isomer, unassigned) [Example 124, (R)- or (S)-3-(Hydroxymethyl)-6-methyl-1-((trans)-4-(trifluoromethyl)cyclohexyl) ethyl)-1H-pyrazolo[3,4-d]-pyrimidin-4(5H)-one] | 521 nM

— US10160762B2, “6-alkyl dihydropyrazolopyrimidinone compounds as PDE2 inhibitors” (Merck Sharp & Dohme Corp., priority 2015, dated 2018)
